In this assay the target is T1, PPARγ-RXRα heterodimer (Homo sapiens, UniProt P37231).
T1 construct: expressed in transfected cells; host or cells: CHO-K1
T1 sequence (P37231 1-505): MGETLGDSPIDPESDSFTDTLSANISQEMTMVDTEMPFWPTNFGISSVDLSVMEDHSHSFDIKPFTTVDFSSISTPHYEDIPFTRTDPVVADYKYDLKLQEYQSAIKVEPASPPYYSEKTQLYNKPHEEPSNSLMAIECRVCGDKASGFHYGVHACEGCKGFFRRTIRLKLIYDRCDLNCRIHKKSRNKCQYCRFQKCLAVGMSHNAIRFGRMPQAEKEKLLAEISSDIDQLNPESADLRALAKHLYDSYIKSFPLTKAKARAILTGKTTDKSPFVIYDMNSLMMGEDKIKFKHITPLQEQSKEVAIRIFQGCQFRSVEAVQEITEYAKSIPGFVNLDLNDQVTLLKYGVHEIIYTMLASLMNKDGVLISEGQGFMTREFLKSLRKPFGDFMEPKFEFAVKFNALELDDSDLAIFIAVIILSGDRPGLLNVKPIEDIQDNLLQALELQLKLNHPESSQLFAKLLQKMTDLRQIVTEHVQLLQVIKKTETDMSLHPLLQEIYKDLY
T1 sequence (P19793 1-462 partner): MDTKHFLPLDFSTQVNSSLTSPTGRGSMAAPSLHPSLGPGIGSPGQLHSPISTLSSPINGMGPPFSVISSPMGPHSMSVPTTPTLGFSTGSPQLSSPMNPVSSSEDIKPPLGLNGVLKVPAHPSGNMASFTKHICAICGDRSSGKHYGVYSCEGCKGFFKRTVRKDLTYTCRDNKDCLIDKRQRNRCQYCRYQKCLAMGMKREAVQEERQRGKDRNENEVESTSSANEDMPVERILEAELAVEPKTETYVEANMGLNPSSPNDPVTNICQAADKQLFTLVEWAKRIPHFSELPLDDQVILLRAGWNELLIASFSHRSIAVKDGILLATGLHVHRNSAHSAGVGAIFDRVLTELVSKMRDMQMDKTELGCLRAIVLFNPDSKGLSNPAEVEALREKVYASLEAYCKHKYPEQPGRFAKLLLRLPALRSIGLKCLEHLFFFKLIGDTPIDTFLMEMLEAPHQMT
The assay can be described thus: PPARγ-RXRα heterodimer ligand activity (luciferase reporter in PPARγ:RXRα:4ERPP/CHO-K1 cells). The assay is classed as cell-based. The settings on record: luciferase induction ratio, 1 day culture, concentration showing 50% of the maximum induction ratio. Here is the method: PPARγ:RXRα:4ERPP/CHO-K1 cells described in WO03/099793 were cultured in hamF12 medium [manufactured by Life Technologies, Inc., USA] supplemented with 10% fetal bovine serum [manufactured by Life Technologies, Inc., USA], plated on a 96 well white half area plate [manufactured by Corning Coster Corporation, USA] at 1×10^4 cells/well and cultured overnight in a carbon dioxide gas incubator at 37° C.
The medium was removed from the 96 well white half area plate, 45 μl of hamF12 medium containing 0.1% fatty acid-free bovine serum albumin (BSA) and 5 μl of a test compound were added, and the cells were cultured in a carbon dioxide gas incubator at 37° C. for 1 day. The medium was removed, and 20 μl of PicaGene 7.5 (manufactured by Wako Pure Chemical Industries, Ltd.) diluted 2-fold with HBSS (HANKS' BALANCED SALT SOLUTION) [manufactured by BIO WHITTAKER, USA] was added. After stirring, the luciferase activity was measured using a 1420 ARVO Multilabel Counter [manufactured by Perkin Elmer Inc., USA].
The induction ratio was calculated from the luciferase activity of each test compound relative to the luciferase activity of the test compound non-administration group as 1. The concentration of the test compound and the induction ratio were analyzed using PRISM [manufactured by GraphPad Software, Inc., USA] and EC50 value (concentration of compound showing 50% of the maximum induction ratio) of the test compound was calculated.
In general terms: Reporter assays use an easily measured gene product as a stand-in for the process of interest.
Broadly, the EC50 is the midpoint of the concentration-response curve. On to `Cc1nn(C)c(Oc2cc(O[C@@H](C)C(=O)O)c(Cl)cc2Cl)c1C` [Example 1, (2S)-2-{2,4-dichloro-5-[(1,3,4-trimethyl-1H-pyrazol-5-yl)oxy]phenoxy}propionic acid], for which the EC50 stood at 24 nM.

With `C[C@H](Oc1cc(Oc2c3c(nn2C)CCCC3)c(Cl)cc1Cl)C(=O)O` [Example 31, (2S)-2-{2,4-dichloro-5-[(2-methyl-4,5,6,7-tetrahydro-2H-indazol-3-yl)oxy]phenoxy}propionic acid], the EC50 stood at 9.3 nM.

Consider `Cc1c(C(F)(F)F)nn(C)c1Oc1cc(O[C@@H](C)C(=O)O)c(Cl)cc1Cl` [Example 74, (2S)-2-(2,4-dichloro-5-{[1,4-dimethyl-3-(trifluoromethyl)-1H-pyrazol-5-yl]oxy}phenoxy)propionic acid], for which the EC50 is 13 nM.

`C=Cc1c(C)nn(C)c1Oc1cc(O[C@@H](C)C(=O)O)c(Cl)cc1Cl` [Example 14, (2S)-2-{2,4-dichloro-5-[(1,3-dimethyl-4-vinyl-1H-pyrazol-5-yl)oxy]phenoxy}propionic acid]: the EC50 stood at 5 nM.

On to `CON=Cc1c(C)nn(C)c1Oc1cc(O[C@@H](C)C(=O)O)c(Cl)cc1Cl` [Example 123, (2S)-2-[2,4-dichloro-5-({4-[(methoxyimino)methyl]-1,3-dimethyl-1H-pyrazol-5-yl}oxy)phenoxy]propionic acid], for which the EC50 is 4.1 nM.

On to `CCNC(=O)OCCCc1c(C)nn(C)c1Oc1cc(O[C@@H](C)C(=O)O)c(Cl)cc1Cl` [Example 298, (2S)-2-(2,4-dichloro-5-{[4-(3-{[(ethylamino)carbonyl]oxy}propyl)-1,3-dimethyl-1H-pyrazol-5-yl]oxy}phenoxy)propionic acid], for which the EC50 amounted to 17 nM.

In the case of `C=Cc1c(C(F)(F)F)nn(C)c1Oc1cc(O[C@@H](C)C(=O)O)c(Cl)cc1Cl` [Example 20, (2S)-2-(2,4-dichloro-5-{[1-methyl-3-(trifluoromethyl)-4-vinyl-1H-pyrazol-5-yl]oxy}phenoxy)propionic acid], the EC50 stood at 3.7 nM.

`Cc1nn(C)c(Oc2cc(O[C@@H](C)C(=O)O)c(Cl)cc2Cl)c1C=NOCc1ccccc1` [Example 125, (2S)-2-{5-[(4-{[(benzyloxy)imino]methyl}-1,3-dimethyl-1H-pyrazol-5-yl)oxy]-2,4-dichlorophenoxy}propionic acid]: the EC50 amounted to 3.1 nM.

Regarding `Cc1nn(C)c(Sc2cc(O[C@@H](C)C(=O)O)c(Cl)cc2Cl)c1C#N` [Example 210, (2S)-2-{2,4-dichloro-5-[(4-cyano-1,3-dimethyl-1H-pyrazol-5-yl)thio]phenoxy}propionic acid], the EC50 turned out to be 9.9 nM.

With `C[C@H](Oc1cc(Oc2c3ccccc3nn2C)c(Cl)cc1Cl)C(=O)O` [Example 30, (2S)-2-{2,4-dichloro-5-[(2-methyl-2H-indazol-3-yl)oxy]phenoxy}propionic acid], the EC50 came to 5.8 nM.

Consider `Cc1cc(Br)c(O[C@@H](C)C(=O)O)cc1Oc1c(C#N)c(C2CC2)nn1C` [Example 256, (2S)-2-{2-bromo-5-[(4-cyano-3-cyclopropyl-1-methyl-1H-pyrazol-5-yl)oxy]-4-methylphenoxy}propionic acid], for which the EC50 was determined as 22 nM.

As for `Cc1nn(C)c(Sc2cc(O[C@@H](C)C(=O)O)c(Cl)cc2Cl)c1C` [Example 115, (2S)-2-{2,4-dichloro-5-[(1,3,4-trimethyl-1H-pyrazol-5-yl)thio]phenoxy}propionic acid], the EC50 was found to be 10 nM.

`Cc1nn(C)c(Oc2cc(O[C@@H](C)C(=O)O)c(Cl)cc2Cl)c1/C=N/O` [Example 104, (2S)-2-[2,4-dichloro-5-({4-[(E)-(hydroxyimino)methyl]-1,3-dimethyl-1H-pyrazol-5-yl}oxy)phenoxy]propionic acid]: the EC50 was 25 nM.

On to `CCc1c(C(F)(F)F)nn(C)c1Oc1cc(O[C@@H](C)C(=O)O)c(Cl)cc1Cl` [Example 76, (2S)-2-(2,4-dichloro-5-{[4-ethyl-1-methyl-3-(trifluoromethyl)-1H-pyrazol-5-yl]oxy}phenoxy)propionic acid], for which the EC50 came to 9.9 nM.

As for `Cc1nn(C)c(Oc2cc(O[C@@H](C)C(=O)O)c(Cl)cc2Cl)c1C#N` [Example 106, (2S)-2-{2,4-dichloro-5-[(4-cyano-1,3-dimethyl-1H-pyrazol-5-yl)oxy]phenoxy}propionic acid], the EC50 turned out to be 120 nM.

With `C=Cc1c(C(C)C)nn(C)c1Oc1cc(O[C@@H](C)C(=O)O)c(Cl)cc1Cl` [Example 43, (2S)-2-{2,4-dichloro-5-[(3-isopropyl-1-methyl-4-vinyl-1H-pyrazol-5-yl)oxy]phenoxy}propionic acid], the EC50 was determined as 4.6 nM.

With `CCC/C=C/c1c(C)nn(C)c1Oc1cc(O[C@@H](C)C(=O)O)c(Cl)cc1Cl` [Example 89, (2S)-2-[2,4-dichloro-5-({1,3-dimethyl-4-[(1E)-1-penten-1-yl]-1H-pyrazol-5-yl}oxy)phenoxy]propionic acid], the EC50 was found to be 2 nM.

Regarding `C=Cc1c(CCC)nn(C)c1Oc1cc(O[C@@H](C)C(=O)O)c(Cl)cc1Cl` [Example 41, (2S)-2-{2,4-dichloro-5-[(1-methyl-3-propyl-4-vinyl-1H-pyrazol-5-yl)oxy]phenoxy}propionic acid], the EC50 worked out at 2.4 nM.

The record behind these values is patent US20100016396A1, “PYRAZOLE COMPOUND” (priority 2007, published 2010).
